We go through three compounds from patent US9278903B2, “Crystal form of prostaglandin analogue, and preparation method and use thereof” (Shanghai Techwell Biopharmaceutical Co., Ltd., priority 2012, dated 2016).

For data set [1] the following is noted: cited from earlier work.
Data set [2] can be described thus: Stability comparison at 40° C. (HPLC purity). The data set is classed as physicochemical. Here is the method: (§1) Column: 4.6×250 mm 5 μm C18 column; flow rate: 2 ml/min; injection volume: 10 μl; column temperature: 35° C.; detection wavelength: 217 nm; mobile phase: acetonitrile/water/trifluoroacetic acid; Elution condition: water (60%): acetonitrile (40%): trifluoroacetic acid (0.1%); detection limit: 10 ng.
The purity mentioned in the following Examples is HPLC purity.
Compound I from example 2, example 3 and example 4 were obtained, and subjected to stability test at 40° C., respectively. […] Therefore, crystalline form A of compound I prepared by the method of the present invention has unique stability.

Data set [3] can be described thus: Storage stability of crystalline form A (HPLC). The data set is classed as physicochemical. Here is the method:
as §1
[…] […] Therefore, crystalline form A of compound I prepared by the method of the present invention has unique stability.

The conditions of data set [4]: cited from earlier work. This is another data set of the same source.

As to `CCCCC[C@H](O)/C=C/[C@@H]1[C@H]2C/C(=C/CCCC(=O)O)O[C@H]2C[C@H]1O` [Epoprostenol], the Half-life in circulation in data set [1] was 3 to 5 min.

As for `CCCCC[C@H](O)CC[C@@H]1[C@H]2Cc3cccc(OCC(=O)O)c3C[C@H]2C[C@H]1O` [Example 4], in data set [2] (0 day), the “Purity at 0 day (40° C.)” value is reported as 99.90%. In data set [2] (10 day), the “Purity at 10 day (40° C.)” value came to 99.91%. In addition, the “Purity at 30 day (40° C.)” value in data set [2] (30 day) was determined as 99.89%. In data set [2] (90 day), the “Purity at 90 day (40° C.)” value stood at 99.88%. Further, the “Degradation on storage (HPLC)” value in data set [3] (stored at 0° C. for 12 months), in data set [3] (stored at 20° C. for 6 months) and in data set [3] (stored at 40° C. for 2 months) was “did not degrade at all” throughout.

Consider `CCCCC[C@H](O)CC[C@@H]1[C@H]2Cc3cccc(OCC(=O)O)c3C[C@H]2C[C@H]1O` [Treprostinil], for which, in data set [4], the “Stability under physiological conditions” value is “stable under physiological conditions”.
